From patent US11555072B2, “A33 antibody compositions and methods of using the same in radioimmunotherapy” (MEMORIAL SLOAN KETTERING CANCER CENTER, priority 2017, dated 2023)

Tests used:
SW1222 tumor = experiment: i.p. SW1222 tumor model with i.v. T cells; assay type: in vivo, mice; details: 6 doses i.v. over 3 weeks, T cells weekly over 2 weeks
Method: (§1) For intraperitoneal (i.p.) tumor models, luciferase expressing LS174T-luc or SW1222-luc cells were resuspended in RPMI medium and injected intraperitoneally into DKO mice. Human effector cells were supplied as activated T cells and injected intravenously. Mice were treated with 2-3 weekly cycles of antibody-T cell-antibody regimen, with each component separated by 3-4 days. Growth of tumors was followed weekly by measuring luminescence signals on an IVIS Spectrum in vivo imaging system ([…]® Inc., Waltham, Mass.) after injection of 3.3 mg/mouse of luciferin. Luminescence was analyzed and quantified using Living Image Software ([…]®-Inc., Waltham, Mass.).
For the SW1222 cell line, tumors were planted intraperitoneally and treated with 6 doses of i.v. antibody over 3 weeks, and i.v. T cell weekly over 2 weeks. […] It is anticipated that additional treatment cycles will completely eradicate the growth of tumors, as in subcutaneous models.

CD3 on T cell surface = molecular target: T1, CD3 on T cell surface (Homo sapiens, UniProt P07766); experiment: FACS staining of activated T cells; assay type: cell-based
T1 construct: endogenous in cells
Source text: Antibodies and flow cytometry. Antibodies anti-hCD25-PE, anti-CD69-PE, anti-hCD8-APC, anti-hCD45-PECy7, anti-hCD4-PE, anti-hCD4-BV421, anti-hCD62L-PercpCy5.5, anti-hPD1-BV421, anti-hCD45RO-PECy7, were purchased from BIOLEGEND® (San Diego, Calif.). Goat anti-human IgG-PE was purchased from SouthernBiotech (Birmingham, Ala.). Streptavidin-PE, anti-hCD4-APC and anti-hCD25-APC were purchased from BD Biosciences (San Jose, Calif.). All FACS analysis was done using FACSCalibur or LSRII system (BD Biosciences, San Jose, Calif.) and analyzed using FlowJo (FLOWJO, Ashland, Oreg.).
The avidities of huA33-BsAb towards GPA33 at both 25° C. and 37° C. were measured using GPA33 immobilized CM5 chips.

LS174T tumors = experiment: s.c. LS174T xenograft with s.c. PBMCs; assay type: in vivo, mice; details: 6 doses over 3 weeks
Method: (§2) In vivo tumor therapy. For subcutaneous (s.c.) tumor models, LS174T, Colo205 or SNU16 cells were combined with fresh PBMCs at a 1:1 ratio, mixed with […]® (volume of cell:gel=1:2), and implanted (100 μl/mouse) at the flank of Balb/c Rag2^−/−IL2Rγ^−/− (DKO) mice (now commercially available from Taconic as CIEA BRG mice). Treatment started after confirmation of tumor presence with a BIW schedule at 100 μg/mouse and continued for 3-4 weeks. Tumor growth was monitored by weekly measurement of tumor volume using a caliper or a digital device Peira TM900 Scanner (Peira Scientific Instruments, Turnhout, Belgium).
HuA33-BsAb cured MSI tumor LSI74T in a s.c. xenograft model and suppressed tumor growth in an i.p. model. LS174T cells were mixed with PBMCs at a 1:1 ratio and implanted subcutaneously in DKO mice. […] Mice from tumor+PBMC group developed tumor ulceration and had to be euthanized.

LS174T tumor = experiment: i.p. LS174T-luc tumor model with i.v. activated T cells; assay type: in vivo, mice
Method: as §1
To simulate malignant ascites, a common occurrence in colon cancers, luciferase-expressing LS174T cells were planted intraperitoneally into DKO mice. When tumor growth was confirmed by luminescence, mice were randomized into different treatment groups, treated with no antibody group (tumor only), tumor+T cell only group (tumor+ATC), or i.v. huA33-BsAb (7 doses over 3 weeks), plus weekly T cell injections over 3 weeks. Treatment was started on day 5 after tumor implantation. All T cells were injected through retro-orbital route.

SNU16 tumors = experiment: s.c. SNU16 gastric cancer xenograft with PBMCs; assay type: in vivo, mice; details: s.c. SNU16 mixed with human PBMCs
Method: as §2
HuA33-BsAb inhibited growth of gastric cancers in a s.c. xenograft model. GPA33 is expressed in a subset of gastric cancer cells. […] Unlike NSG mice, DKO mice were more resistant to engraftment of human PBMCs.

Colo205 cells = experiment: TDCC assay with sorted fresh T cell subsets; assay type: cell-based, human
Method: T-cell dependent cytotoxicity (TDCC) assays. Cytotoxicity assays were performed using both ^51Cr-release assay and Pierce LDH-release assay (Thermo Fisher Scientific, Cambridge, Mass.). For both assays, T cells activated by exposure to anti-CD3/anti-CD28 Dynabeads for 14 days were subsequently used as effector cells, excepted for sorted cells from PBMCs, which were used for TDCC assay without prior stimulation. ^51Cr assay was performed as previously described in Cheng M et al., International Journal of Cancer 136:476-486 (2015). LDH assay was conducted according to the manufacturer's instructions with the following modifications. Briefly, for each assay well of a 96-well round-bottom plate, 1.5×10^4 target cells were incubated with variable number of effector cells, depending on the intended E:T ratios. […] Each condition was done in triplicates. Supernatant was then transferred to a flat bottom plate with reaction substrate and incubated for 30 min before reading at 490 nm, with 680 nm as a reference wavelength. EC50 values were calculated by fitting the curves to a 4-parameter nonlinear regression model using GraphPad Prism.
To determine which subsets of T cells were mobilized by huA33-BsAb, CD45RA(+)CD62L(+) and CD45RA(−)CD45RO(+)CD62L(−) memory subsets from both CD4(+) and CD8(+) T cells were sorted. […]

Colo205 tumors = experiment: s.c. Colo205 xenograft with PBMCs; assay type: in vivo, mice
Method: as §2
HuA33-BsAb cured MSS tumor COLO205 in a s.c. xenograft model and suppressed tumor growth of metastatic MSS tumor SW1222. Two MSS colon cancer cell lines Colo205 and SW1222 were tested. For Colo205 cells, tumors were implanted subcutaneously with PBMCs as effector cells.

T1 sequence (P07766 23-207): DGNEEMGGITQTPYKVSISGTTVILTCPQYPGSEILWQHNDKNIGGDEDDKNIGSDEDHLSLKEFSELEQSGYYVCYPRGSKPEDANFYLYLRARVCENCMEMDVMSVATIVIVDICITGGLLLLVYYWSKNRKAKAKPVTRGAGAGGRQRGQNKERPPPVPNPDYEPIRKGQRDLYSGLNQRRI
T1 sequence (P09693 23-182 partner): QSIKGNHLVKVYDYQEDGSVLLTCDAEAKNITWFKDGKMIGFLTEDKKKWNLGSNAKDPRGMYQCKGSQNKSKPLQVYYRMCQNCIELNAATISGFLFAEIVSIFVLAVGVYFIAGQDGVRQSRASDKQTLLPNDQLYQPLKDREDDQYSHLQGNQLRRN
T1 sequence (P04234 22-171 partner): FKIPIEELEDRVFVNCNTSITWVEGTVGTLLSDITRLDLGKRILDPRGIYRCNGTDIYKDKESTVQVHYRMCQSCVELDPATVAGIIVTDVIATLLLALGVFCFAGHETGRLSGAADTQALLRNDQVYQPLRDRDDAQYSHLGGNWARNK
T1 sequence (P20963 22-164 partner): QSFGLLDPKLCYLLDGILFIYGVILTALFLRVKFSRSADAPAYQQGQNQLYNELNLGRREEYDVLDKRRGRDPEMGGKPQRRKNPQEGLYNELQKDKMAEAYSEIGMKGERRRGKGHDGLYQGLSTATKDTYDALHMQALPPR

## huA33-BsAb: huA33 IgG with humanized OKT3 scFv fused to light chain C-terminus, N297A and K322A; SEQ ID NO: 19 and 21
SW1222 tumor
  tumor growth and survival: suppressed tumor growth and significantly prolonged mice survival
CD3 on T cell surface
  staining of activated T cells: bound to CD3 on T cell surface
LS174T tumors
  time mice remained tumor free: at least 120 days
  tumor response: effectively cured the mice
LS174T tumor; i.v., 7 doses over 3 weeks, weekly T cells
  tumor growth in the abdomen: significantly suppressed metastatic growth of LS174T tumor
LS174T tumor; without further treatment
  time all mice remained alive: at least 60 days
SNU16 tumors
  survival: significantly prolonged survival
  tumor response: effectively cured the mice harboring s.c. tumors
Colo205 cells; CD45RO+ and CD45RO− fractions, 48 hours
  CD25 expression on T cells from the TDCC assay: CD25 expression was upregulated
Colo205 cells; Colo205, E:T 5:1, 48 hours, LDH assay
  cytotoxicity by sorted T cell subsets: both CD4(+) and CD8(+) memory T cell subsets were capable of inducing cytotoxicity
Colo205 tumors; 4 doses
  tumor response: completely eradicate Colo205 tumors
Colo205 tumors; after a total of 6 doses
  time mice remained tumor free: at least 4 months
